In one series the target is HDAC7 (Homo sapiens (Human), UniProt Q8WUI4). The series can be described thus: HDAC7 enzymatic assay. To be noted: selectivity profile; read-out: HDAC Enzyme IC50, HDAC 7. The class given is biochemical. The protocol: (§1) All enzymatic reactions were conducted in duplicate at room temperature for 17 hours in a 50 μl mixture containing HDAC assay buffer (50 mM Tris-HCl, pH 7.4, 137 mM NaCl, 2.7 mM KCl, 0.05% Tween 20, 5 μg BSA), an HDAC substrate, an HDAC enzyme, and a test compound. Compound dilution was prepared ten-fold higher than the final concentration of the compounds with 10% DMSO in HDAC assay buffer and 5 μl of the dilution was added to a 50 μl reaction so that the final concentration of DMSO is 1% in all of reactions. After enzymatic reactions, 50 μl of HDAC Developer was added to each well and the plate was incubated at room temperature for an additional 20 minutes. Fluorescence intensity was measured at an excitation of 360 nm and an emission of 460 nm using a Tecan Infinite M1000 or Biotek Synergy microplate reader.
(§2) The fluorescent intensity data were analyzed using the computer software, Graphpad Prism. In the absence of the compound, the fluorescent intensity (Ft) in each data set was defined as 100% activity. In the absence of HDAC, the fluorescent intensity (Fb) in each data set was defined as 0% activity. The percent activity in the presence of each compound was calculated according to the following equation: % activity=(F−Fb)/(Ft−Fb), where F=the fluorescent intensity in the presence of the compound.
(§3) The values of % activity versus a series of compound concentrations were then plotted using non-linear regression analysis of Sigmoidal dose-response curve generated with the equation Y=B+(T−B)/1+10((Log EC50−X)×Hill Slope), where Y=percent activity, B=minimum percent activity, T=maximum percent activity, X=logarithm of compound and Hill Slope=slope factor or Hill coefficient. The IC50 value was determined by the concentration causing a half-maximal percent activity.
(§4) HDAC1 enzymatic assays contained 0.5 ng HDAC1 and 10 uM of HDAC substrate. HDAC2 enzymatic assays contained 0.5 ng HDAC2 and 10 uM of HDAC substrate. HDAC3 enzymatic assays contained 0.4 ng HDAC3/NCOR2 and 10 uM of HDAC substrate. HDAC4 enzymatic assays contained 0.02 ng HDAC4 and 2 uM of HDAC substrate. HDAC5 enzymatic assays contained 0.5 ng HDAC5 and 2 uM of HDAC substrate. HDAC6 enzymatic assays contained 2 ng HDAC6 and 10 uM of HDAC substrate. HDAC7 enzymatic assays contained 0.05 ng HDAC7 and 2 uM of HDAC substrate. HDAC8 enzymatic assays contained 5 ng HDAC8 and 2 uM of HDAC substrate. HDAC9 enzymatic assays contained 1 ng HDAC9 and 2 uM of HDAC substrate. HDAC10 enzymatic assays contained 75 ng HDAC10 and 10 uM of HDAC substrate. HDAC11 enzymatic assays contained 5 ng HDAC11 and 2 uM of HDAC substrate.

A further series concerns the target HDAC8 (Homo sapiens (Human), UniProt Q9BY41). Nature of the series: HDAC8 enzymatic assay. Format: biochemical. As to conditions: selectivity profile; read-out: HDAC Enzyme IC50, HDAC 8. As for the experimental part:
as §1, §2, §3, §4

A further series addresses HDAC5 (Homo sapiens (Human), UniProt Q9UQL6). Nature of the series: HDAC5 enzymatic assay. The class given is biochemical. To be noted: selectivity profile; read-out: HDAC Enzyme IC50, HDAC 5. The protocol:
as §1, §2, §3, §4

The next series has as its target HDAC2 (Homo sapiens (Human), UniProt Q92769). Nature of the series: HDAC2 enzymatic assay. Format: biochemical. As to conditions: selectivity profile; read-out: HDAC Enzyme IC50, HDAC 2. As for the experimental part: as §1, §2, §3, §4
In a further series the target is HDAC11 (Homo sapiens (Human), UniProt Q96DB2). The series can be described thus: HDAC11 enzymatic assay. The class given is biochemical. As to conditions: selectivity profile; read-out: HDAC Enzyme IC50, HDAC 11. The protocol:
as §1, §2, §3, §4

Another series deals with HDAC6 (Homo sapiens (Human), UniProt Q9UBN7). The series can be described thus: HDAC6 enzymatic assay. The class given is biochemical. An outline of the steps:
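Following a 17 hour room-temperature incubation of 2 ng HDAC6 with 10 uM substrate and compound, 50 μl developer was added for another 20 minutes, and fluorescence (excitation 360 nm, emission 460 nm) was recorded. Activity was normalized to no-compound (100%) and no-enzyme (0%) wells, and IC50 came from sigmoidal dose-response fitting in Graphpad Prism.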

The target of the next series is HDAC1 (Homo sapiens (Human), UniProt Q13547). Nature of the series: HDAC1 enzymatic assay. The class given is biochemical. The procedure, abridged:
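Compound inhibition of human HDAC1 (0.5 ng enzyme, 10 uM substrate) was assessed by fluorescence after developer treatment, excitation 360 nm and emission 460 nm. Percent activity was normalized to no-compound (100%) and no-enzyme (0%) controls, plotted against concentration, and fitted to a sigmoidal dose-response curve in Graphpad Prism to obtain IC50 at half-maximal activity.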

The target in another series is HDAC10 (Homo sapiens (Human), UniProt Q969S8). The series can be described thus: HDAC10 enzymatic assay. Format: biochemical. As to conditions: selectivity profile; read-out: HDAC Enzyme IC50, HDAC 10. The protocol:
as §1, §2, §3, §4

For the next series, the target named is HDAC9 (Homo sapiens (Human), UniProt Q9UKV0). The series can be described thus: HDAC9 enzymatic assay. Format: biochemical. To be noted: selectivity profile; read-out: HDAC Enzyme IC50, HDAC 9. The protocol:
as §1, §2, §3, §4

For another series, the target named is HDAC3/NCOR2 (Homo sapiens (Human), UniProt O15379). Nature of the series: HDAC3 enzymatic assay. Format: biochemical. As to conditions: selectivity profile; read-out: HDAC Enzyme IC50, HDAC 3. As for the experimental part: as §1, §2, §3, §4
Sequence of HDAC3/NCOR2 (O15379 whole entry, looked up, species assumed): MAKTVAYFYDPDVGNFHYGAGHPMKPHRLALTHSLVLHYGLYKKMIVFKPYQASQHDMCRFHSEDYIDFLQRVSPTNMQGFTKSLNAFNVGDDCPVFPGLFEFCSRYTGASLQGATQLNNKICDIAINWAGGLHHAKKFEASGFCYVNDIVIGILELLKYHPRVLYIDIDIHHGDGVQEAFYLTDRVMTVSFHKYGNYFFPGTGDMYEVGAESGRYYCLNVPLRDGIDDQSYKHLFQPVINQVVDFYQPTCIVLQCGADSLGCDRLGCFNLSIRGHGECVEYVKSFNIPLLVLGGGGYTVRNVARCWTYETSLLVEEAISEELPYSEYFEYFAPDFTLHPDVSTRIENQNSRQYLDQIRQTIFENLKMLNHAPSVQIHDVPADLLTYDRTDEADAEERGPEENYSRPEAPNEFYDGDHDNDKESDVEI
Sequence of HDAC3/NCOR2 (Q9Y618 whole entry partner, looked up, species assumed): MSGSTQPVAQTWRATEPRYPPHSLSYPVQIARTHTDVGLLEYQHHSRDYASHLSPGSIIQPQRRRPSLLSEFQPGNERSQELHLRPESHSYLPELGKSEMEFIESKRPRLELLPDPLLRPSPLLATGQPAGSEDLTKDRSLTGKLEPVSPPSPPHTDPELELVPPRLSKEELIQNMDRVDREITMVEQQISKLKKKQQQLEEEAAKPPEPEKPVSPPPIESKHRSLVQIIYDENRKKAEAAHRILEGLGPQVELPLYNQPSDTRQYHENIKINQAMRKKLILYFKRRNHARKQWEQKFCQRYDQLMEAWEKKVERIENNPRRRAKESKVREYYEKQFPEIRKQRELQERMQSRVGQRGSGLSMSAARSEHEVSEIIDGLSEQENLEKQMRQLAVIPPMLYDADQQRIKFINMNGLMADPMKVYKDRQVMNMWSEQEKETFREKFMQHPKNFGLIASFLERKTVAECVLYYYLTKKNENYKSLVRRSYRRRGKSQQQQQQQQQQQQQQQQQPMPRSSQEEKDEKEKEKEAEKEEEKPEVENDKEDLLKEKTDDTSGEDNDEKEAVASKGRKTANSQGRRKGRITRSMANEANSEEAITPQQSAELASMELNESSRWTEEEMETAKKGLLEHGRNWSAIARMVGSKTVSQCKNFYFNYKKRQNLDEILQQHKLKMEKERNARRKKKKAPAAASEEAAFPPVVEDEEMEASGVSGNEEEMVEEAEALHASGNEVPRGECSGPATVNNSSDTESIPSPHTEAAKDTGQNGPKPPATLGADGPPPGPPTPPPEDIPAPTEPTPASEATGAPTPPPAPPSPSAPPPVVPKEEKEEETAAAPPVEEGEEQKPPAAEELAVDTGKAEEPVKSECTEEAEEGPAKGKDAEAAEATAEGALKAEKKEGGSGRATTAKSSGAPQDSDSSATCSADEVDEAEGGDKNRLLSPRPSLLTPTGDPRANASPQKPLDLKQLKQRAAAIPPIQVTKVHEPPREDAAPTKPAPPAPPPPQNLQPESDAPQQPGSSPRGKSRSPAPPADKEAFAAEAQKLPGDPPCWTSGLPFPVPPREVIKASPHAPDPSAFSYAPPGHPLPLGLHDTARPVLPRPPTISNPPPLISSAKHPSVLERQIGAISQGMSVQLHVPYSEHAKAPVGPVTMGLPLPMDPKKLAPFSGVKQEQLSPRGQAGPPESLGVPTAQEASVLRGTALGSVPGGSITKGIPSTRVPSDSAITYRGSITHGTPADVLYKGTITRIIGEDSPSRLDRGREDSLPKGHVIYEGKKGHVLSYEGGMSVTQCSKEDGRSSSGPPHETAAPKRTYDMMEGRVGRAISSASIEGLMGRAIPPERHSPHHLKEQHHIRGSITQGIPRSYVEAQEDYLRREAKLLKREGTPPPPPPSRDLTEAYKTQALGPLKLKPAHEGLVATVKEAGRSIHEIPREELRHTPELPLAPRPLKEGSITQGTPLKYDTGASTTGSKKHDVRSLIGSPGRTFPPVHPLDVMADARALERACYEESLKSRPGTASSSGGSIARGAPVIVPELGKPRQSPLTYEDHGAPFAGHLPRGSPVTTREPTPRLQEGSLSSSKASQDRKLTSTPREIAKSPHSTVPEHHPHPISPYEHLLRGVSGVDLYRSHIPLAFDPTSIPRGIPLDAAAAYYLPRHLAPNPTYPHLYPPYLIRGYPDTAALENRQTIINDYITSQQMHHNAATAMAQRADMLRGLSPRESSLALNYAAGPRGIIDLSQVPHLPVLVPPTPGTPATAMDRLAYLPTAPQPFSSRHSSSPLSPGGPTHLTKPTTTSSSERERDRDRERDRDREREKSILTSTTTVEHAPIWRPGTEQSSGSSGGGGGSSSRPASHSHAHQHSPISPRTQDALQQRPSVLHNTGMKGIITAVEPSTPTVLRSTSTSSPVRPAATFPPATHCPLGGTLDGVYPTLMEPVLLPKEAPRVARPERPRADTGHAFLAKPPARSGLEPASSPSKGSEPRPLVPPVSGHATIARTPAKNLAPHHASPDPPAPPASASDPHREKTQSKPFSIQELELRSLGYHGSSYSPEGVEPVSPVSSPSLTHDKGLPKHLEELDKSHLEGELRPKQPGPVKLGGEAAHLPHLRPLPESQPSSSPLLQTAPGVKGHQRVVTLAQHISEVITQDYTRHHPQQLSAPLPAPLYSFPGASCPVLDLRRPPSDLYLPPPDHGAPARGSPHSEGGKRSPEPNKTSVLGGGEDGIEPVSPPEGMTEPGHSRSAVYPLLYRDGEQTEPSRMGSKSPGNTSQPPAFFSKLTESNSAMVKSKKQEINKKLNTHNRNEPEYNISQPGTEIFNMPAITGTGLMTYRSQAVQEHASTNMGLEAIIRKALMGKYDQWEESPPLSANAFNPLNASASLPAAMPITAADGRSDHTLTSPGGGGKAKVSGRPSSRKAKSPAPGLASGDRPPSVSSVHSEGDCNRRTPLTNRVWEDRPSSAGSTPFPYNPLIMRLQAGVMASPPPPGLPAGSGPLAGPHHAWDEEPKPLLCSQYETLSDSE
A short description of series [1]: Mouse Pharmacokinetics, oral single dose. The class given is in vivo, male Swiss Albino mice. To be noted: male, Swiss Albino, plasma, 5 mg/kg, formulation by footnote: a 20% CremEL in H20, b 1% CMC in water, c 2% DMSO, 0.2% Tween80, 97.8% of 1% CMC. The protocol:
Example 187: Mouse Pharmacokinetics
A dose of 5 mg/kg in an appropriate formulation was administered by oral gavage to fasted male Swiss Albino mice (n=3), and the plasma was collected at 0, 0.25, 0.5, 1, 2, 4, 8, and 24 h. Plasma levels were measured by HPLC/MS/MS methods and the pharmacokinetic parameters were determined for individual animals from plasma concentration-time data using noncompartmental model 200-202 in Phoenix WinNonlin 6.3.

The next series addresses HDAC4 (Homo sapiens (Human), UniProt P56524). The series can be described thus: HDAC4 enzymatic assay. The class given is biochemical. As to conditions: selectivity profile; read-out: HDAC Enzyme IC50, HDAC 4. The protocol:
as §1, §2, §3, §4

The mark [2] stands for this setting: selectivity profile, read-out: HDAC Enzyme IC50, HDAC 6.
The mark [3] stands for this setting: selectivity profile, read-out: HDAC Enzyme IC50, HDAC 1.

Each structure is given as a SMILES string. Like-named read-outs stand apart in the source and are kept apart here. Where only a bound is given, the exact number is not on record here.

Sequence of HDAC4 (P56524 whole entry, species assumed): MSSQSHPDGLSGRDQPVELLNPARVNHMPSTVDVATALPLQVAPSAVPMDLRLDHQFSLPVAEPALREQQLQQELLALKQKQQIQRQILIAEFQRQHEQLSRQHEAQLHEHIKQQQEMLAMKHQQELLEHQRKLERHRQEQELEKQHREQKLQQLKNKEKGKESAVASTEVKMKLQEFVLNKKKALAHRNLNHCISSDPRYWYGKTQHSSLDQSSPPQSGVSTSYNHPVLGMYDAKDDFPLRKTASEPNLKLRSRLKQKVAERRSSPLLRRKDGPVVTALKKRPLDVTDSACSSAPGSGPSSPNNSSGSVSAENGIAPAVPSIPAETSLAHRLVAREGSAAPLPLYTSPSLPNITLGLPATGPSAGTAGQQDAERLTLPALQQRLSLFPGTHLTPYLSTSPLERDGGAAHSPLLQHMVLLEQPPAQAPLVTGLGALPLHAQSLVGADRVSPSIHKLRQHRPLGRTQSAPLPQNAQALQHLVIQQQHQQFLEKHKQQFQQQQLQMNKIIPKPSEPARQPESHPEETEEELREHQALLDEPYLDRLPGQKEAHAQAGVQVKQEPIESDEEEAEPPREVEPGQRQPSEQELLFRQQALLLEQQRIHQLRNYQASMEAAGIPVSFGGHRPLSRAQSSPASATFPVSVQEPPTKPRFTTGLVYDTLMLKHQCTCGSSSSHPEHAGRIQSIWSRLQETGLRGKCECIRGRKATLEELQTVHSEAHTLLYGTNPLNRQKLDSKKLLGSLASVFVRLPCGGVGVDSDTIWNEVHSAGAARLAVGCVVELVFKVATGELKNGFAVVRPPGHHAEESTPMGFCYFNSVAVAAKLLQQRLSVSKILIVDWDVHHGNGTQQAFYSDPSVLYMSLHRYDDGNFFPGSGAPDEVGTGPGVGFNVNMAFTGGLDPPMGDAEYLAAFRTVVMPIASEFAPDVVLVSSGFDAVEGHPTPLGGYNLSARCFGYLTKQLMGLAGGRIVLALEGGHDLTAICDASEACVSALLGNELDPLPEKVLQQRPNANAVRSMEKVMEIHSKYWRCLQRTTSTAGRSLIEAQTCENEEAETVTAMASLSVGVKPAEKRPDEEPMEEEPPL
Sequence of HDAC2 (Q92769 whole entry, species assumed): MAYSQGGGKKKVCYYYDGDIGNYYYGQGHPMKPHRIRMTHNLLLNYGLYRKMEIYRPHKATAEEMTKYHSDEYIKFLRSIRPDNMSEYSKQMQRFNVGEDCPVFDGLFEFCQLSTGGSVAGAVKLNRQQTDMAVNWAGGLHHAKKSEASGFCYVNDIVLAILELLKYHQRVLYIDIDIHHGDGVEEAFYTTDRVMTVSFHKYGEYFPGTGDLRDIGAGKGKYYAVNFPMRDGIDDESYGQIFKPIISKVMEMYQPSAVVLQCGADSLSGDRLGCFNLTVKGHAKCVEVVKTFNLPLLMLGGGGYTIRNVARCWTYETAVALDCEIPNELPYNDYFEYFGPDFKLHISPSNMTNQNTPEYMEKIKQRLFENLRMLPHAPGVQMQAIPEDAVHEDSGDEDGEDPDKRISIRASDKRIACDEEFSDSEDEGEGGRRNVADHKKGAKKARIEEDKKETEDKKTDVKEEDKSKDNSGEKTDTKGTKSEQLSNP
Sequence of HDAC1 (Q13547 whole entry): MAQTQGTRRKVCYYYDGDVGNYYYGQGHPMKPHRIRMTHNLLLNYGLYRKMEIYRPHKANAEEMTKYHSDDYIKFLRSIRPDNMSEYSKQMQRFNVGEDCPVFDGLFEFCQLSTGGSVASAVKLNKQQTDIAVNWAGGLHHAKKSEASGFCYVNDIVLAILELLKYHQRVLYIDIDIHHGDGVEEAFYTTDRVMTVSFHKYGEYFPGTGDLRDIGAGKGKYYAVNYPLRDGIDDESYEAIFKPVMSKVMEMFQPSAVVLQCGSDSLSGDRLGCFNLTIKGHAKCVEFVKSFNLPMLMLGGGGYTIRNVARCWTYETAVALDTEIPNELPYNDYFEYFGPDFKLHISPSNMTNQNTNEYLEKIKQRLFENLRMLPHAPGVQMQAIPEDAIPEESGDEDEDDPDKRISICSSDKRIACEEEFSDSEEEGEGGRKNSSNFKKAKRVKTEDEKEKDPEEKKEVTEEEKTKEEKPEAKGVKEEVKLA

One may read the IC50 as the concentration that gives 50% inhibition. As usually defined, the Cmax is the peak of the concentration-time curve. By half-life is commonly meant the time needed for the level to fall by half in the phase considered. Read a low half-life as rapid decline. For `CS(=O)(=O)NCC(Nc1ncc(-c2nnc(C(F)F)o2)cn1)c1ccc(F)cc1` (single isomer, unassigned) [38(+), N-(2-((5-(5-(difluoromethyl)-1,3,4-oxadiazol-2-yl)pyrimidin-2-yl)amino)-2-(4-fluorophenyl)ethyl) methanesulfonamide], the IC50 was 16.7 µM on HDAC7; greater than 30 µM on HDAC8; greater than 30 µM on HDAC5; greater than 30 µM at HDAC2; greater than 30 µM on HDAC11; 0.015 µM at HDAC6 (read-out: Human HDAC6 IC50). In addition, the IC50 at HDAC6 (setting [2]) is 0.015 µM; on HDAC1 (read-out: Human HDAC1 IC50), greater than 30 µM; on HDAC1 (setting [3]), greater than 30 µM; on HDAC10 it was greater than 30 µM; at HDAC9 it was greater than 30 µM; on HDAC3/NCOR2 it was greater than 30 µM. On HDAC4, the IC50 is greater than 30 µM. Moreover, in series [1], the Cmax was 1110 ng/mL. Moreover, the half-life in series [1] is 2.7 h.
As for `CS(=O)(=O)NCC(Nc1ncc(-c2nnc(C(F)F)o2)cn1)c1ccc(OC(F)F)cc1` (single isomer, unassigned) [115(+), N-(2-(4-(difluoromethoxy)phenyl)-2-((5-(5-(difluoromethyl)-1,3,4-oxadiazol-2-yl)pyrimidin-2-yl)amino)ethyl)methanesulfonamide], the IC50 on HDAC7 is 11.9 µM; at HDAC8 it was greater than 30 µM; at HDAC5 it was greater than 30 µM; at HDAC2, greater than 30 µM; on HDAC11 it was greater than 30 µM; at HDAC6 (read-out: Human HDAC6 IC50) it was 0.018 µM. Besides, the IC50 was 0.018 µM at HDAC6 (setting [2]); greater than 30 µM at HDAC1 (read-out: Human HDAC1 IC50); greater than 30 µM on HDAC1 (setting [3]); greater than 30 µM on HDAC10; greater than 30 µM at HDAC9; greater than 30 µM at HDAC3/NCOR2. Moreover, the IC50 at HDAC4 amounted to 10.7 µM. In series [1], this molecule registered a Cmax of 656 ng/mL. Further, the half-life in series [1] was 4.3 h.
As for `CS(=O)(=O)N(CC(Nc1ncc(-c2nnc(C(F)F)o2)cn1)c1ccc(F)cc1)CC(F)(F)F` (single isomer, unassigned) [118(+), N-(2-((5-(5-(difluoromethyl)-1,3,4-oxadiazol-2-yl)pyrimidin-2-yl)amino)-2-(4-fluorophenyl)ethyl)-N-(2,2,2-trifluoroethyl)methanesulfonamide], the IC50 is greater than 30 µM on HDAC7; greater than 30 µM on HDAC8; greater than 30 µM at HDAC5; greater than 30 µM on HDAC2; greater than 30 µM on HDAC11; 0.029 µM at HDAC6 (read-out: Human HDAC6 IC50). Further, the IC50 on HDAC6 (setting [2]) was 0.029 µM; at HDAC1 (read-out: Human HDAC1 IC50) it was greater than 30 µM; at HDAC1 (setting [3]), greater than 30 µM; on HDAC10 it was greater than 30 µM; at HDAC9, greater than 30 µM; on HDAC3/NCOR2, greater than 30 µM. Moreover, the IC50 at HDAC4 is greater than 30 µM. In [1], the peak concentration (Cmax) was 697 ng/mL. The molecule also had a half-life in series [1] of 23.2 h.
Take `CS(=O)(=O)NCC(Nc1ncc(-c2nnc(C(F)F)o2)cn1)c1ccc(OC(F)(F)F)cc1` (single isomer, unassigned) [122(+), N-(2-((5-(5-(difluoromethyl)-1,3,4-oxadiazol-2-yl)pyrimidin-2-yl)amino)-2-(4-(trifluoromethoxy)phenyl)ethyl)methanesulfonamide]: the IC50 at HDAC7 is 26.7 µM; on HDAC8, greater than 30 µM; at HDAC5, greater than 30 µM; on HDAC2, greater than 30 µM; on HDAC11, greater than 30 µM; at HDAC6 (read-out: Human HDAC6 IC50), 0.031 µM. In addition, the IC50 is 0.031 µM on HDAC6 (setting [2]); greater than 30 µM at HDAC1 (read-out: Human HDAC1 IC50); greater than 30 µM at HDAC1 (setting [3]); greater than 30 µM on HDAC10; greater than 30 µM at HDAC9; greater than 30 µM at HDAC3/NCOR2. The IC50 on HDAC4 came to 8.4 µM. Moreover, the Cmax in series [1] turned out to be 2930 ng/mL. Further, the half-life in series [1] is 18.4 h.
Regarding `O=S(=O)(NCC(Nc1ncc(-c2nnc(C(F)F)o2)cn1)c1ccc(F)cc1)C1CC1` (stereo not drawn) [Example 110, N-(2-((5-(5-(difluoromethyl)-1,3,4-oxadiazol-2-yl)pyrimidin-2-yl)amino)-2-(4-fluorophenyl)ethyl)cyclopropanesulfonamide], the IC50 is greater than 30 µM at HDAC7; greater than 30 µM on HDAC8; greater than 30 µM at HDAC5; greater than 30 µM at HDAC2; greater than 30 µM on HDAC11; 0.028 µM on HDAC6 (read-out: Human HDAC6 IC50). For the same molecule, the IC50 is 0.028 µM at HDAC6 (setting [2]); greater than 30 µM on HDAC1 (read-out: Human HDAC1 IC50); greater than 30 µM at HDAC1 (setting [3]); greater than 30 µM on HDAC10; greater than 30 µM on HDAC9; greater than 30 µM on HDAC3/NCOR2. Moreover, the IC50 on HDAC4 is greater than 30 µM. The peak level in series [1] (Cmax) was 830 ng/mL. The same molecule gave a half-life in series [1] of 4.3 h.
